Measurements: US6541208B1, “Diagnostic method for distinguishing HIV-associated dementia from other forms of dementia” (University of Maryland Biotechnology Institute, priority 1998, dated 2003)

How the values were obtained:
[1] = test system: astrocytic MCP-1 expression; experiment: Northern blot analysis of MCP-1 RNA in stimulated human astrocytes; format: cell-based
Source text: FIG. 1A—Total RNA was extracted from T lymphoblastoid HUT 78 cells (ATCC), and from variously treated human astrocytes. Ten μg per lane were then run on a 1% agarose-6% formaldehyde gel. Following transfer of RNA to nitrocellulose, the blot was probed with the full-length cDNA for MCP-1, and subsequently, RANTES. RNA from untreated astrocytes was run in lanes 2 and 4. […] Astrocytic expression of RANTES was not detected.
FIG. 1B—Similar experience except that RNA from HUT 78 cells (lane 1) was compared to RNA from astrocytes that were unstimulated (lane 2) or stimulated for 2 hr with 100 nM Tat (lane 3), 25 μM TPCK followed by 100 nM Tat (lane 4) or 25 μM TPCK (lane 5).
Brain tissue from 12-14 wk human fetuses was obtained in accordance with NIH guidelines. The tissue was mechanically disrupted by aspiration through a 19-gauge needle, washed in Eagle's minimal essential medium (EMEM) and then distributed into tissue culture flasks. Cells were maintained in EMEM containing 10% fetal bovine serum, 2 mM L-glutamine and 5 μg/ml gentamicin. Several days later, flasks were placed into an orbital incubator shaker at 37° C. and 210 rpm for 6 hr. Non-adherent cells were removed. A portion of the adherent cells were later stained with an antibody to glial fibrallary acidic protein and only those cultures which were >95% positive were used. […]

MCP-1 activity = conditions: point mutations Thr-10 to Arg and Tyr-13 to Ile; cited from earlier work

## Cc1ccc(S(=O)(=O)N[C@@H](Cc2ccccc2)C(=O)CCl)cc1 [TPCK, n-tosli-L-phenylalanine chloromethyl ketone, reference compound]
[1]; 25 μM TPCK followed by 100 nM Tat, 2 hr
  effect on Tat-induced increase in MCP-1 encoding RNA: inhibited

## MCP-1 protein with point mutations of Thr-10 to Arg and Tyr-13 to Ile: mutant MCP-1 protein from Beal et al., contemplated as MCP-1 antagonist
MCP-1 activity
  MCP-1 activity of the mutant protein: greatly reduced MCP-1 activity

## interleukin-1β: cytokine used at 5 ng/ml to stimulate astrocytes [reference compound]
[1]; 5 ng/ml interleukin-1β, 4 hr stimulation, human astrocytes
  astrocytic MCP-1 expression (MCP-1 encoding RNA): increase in astrocytic MCP-1 expression
